Values of other authors, collected in patent EP3811932A1, “DOSAGE FORM OF APALUTAMIDE” (Zentiva K.S., priority 2019, dated 2021).

Conditions: over a wide range of pH values

CNC(=O)c1ccc(N2C(=S)N(c3cnc(C#N)c(C(F)(F)F)c3)C(=O)C23CCC3)cc1F [Apalutamide, 4-[7-[6-cyano-5-(trifluoromethyl)pyridin-3-yl]-8-oxo-6-thioxo-5,7-diazaspiro[3.4]octan-5-yl]-2-fluoro-N-methylbenzamide]
solubility in aqueous media: practically insoluble
